# Measured values: patent US20120309676A1, “Lantibiotic Salts” (priority 2010, published 2012)
# Where a name gives a salt, the structure may show the parent alone. Read-outs that look alike come from different tables or passages of the source.
# Tests used:
# [1] = tested on: Vancomycin resistant enterococci, E. faecium; test: MIC susceptibility testing, vancomycin resistant enterococci (E. faecium); format: cell-based
# Protocol: (§1) Susceptibility testing with the exception of Streptococcus pneumoniae was performed by two-fold serial dilutions in Mueller Hinton Broth supplemented with 50 μg/mL Ca^2+. Susceptibility testing of S. pneumoniae was performed by two-fold serial dilutions in Brain-Heart-Infusion Broth supplemented with 50 μg/mL Ca^2+.
# (§2) Modal values from up to 6 determinations
# [2] = tested on: Vancomycin resistant enterococci, E. faecalis; test: MIC susceptibility testing, vancomycin resistant enterococci (E. faecalis); format: cell-based
# Protocol: as §1, §2
# Streptococcus pneumoniae = test: MIC susceptibility testing, S. pneumoniae (Brain-Heart-Infusion Broth); format: cell-based; details: S. pneumoniae R33
# Protocol: as §1, §2
# [3] = tested on: Methicillin-sensitive Staph. epidermidis; test: MIC susceptibility testing, methicillin-sensitive Staph. epidermidis; format: cell-based, S. epidermidis
# Protocol: as §1, §2
# [4] = tested on: Vancomycin sensitive enterococci, E. faecium; test: MIC susceptibility testing, vancomycin sensitive enterococci (E. faecium); format: cell-based
# Protocol: as §1, §2
# Aqueous solubility = format: physicochemical
# Source text: Solubility as employed herein is used generically to refer to a distribution of a compound of formula (I) in a solvent (for example water, saline or an aqueous isotonic solution such as glucose) such that the formulation/composition resulting therefrom is substantially free of visible aggregates and for example is substantially transparent when viewed by the naked eye. Such a formulation would therefore include a whole range of formats which are suitable for infusion and/or injection such as solutions, suspensions, colloids and the like. […]
# S. pyogenes = test: MIC susceptibility testing, S. pyogenes; format: cell-based
# Protocol: as §1, §2
# MSSA = test: MIC susceptibility testing, MSSA; format: cell-based, Staphylococcus aureus
# Protocol: as §1, §2
# MRSA = test: MIC susceptibility testing, MRSA; format: cell-based, Staphylococcus aureus
# Protocol: as §1, §2
# [5] = tested on: Vancomycin sensitive enterococci, E. faecalis; test: MIC susceptibility testing, vancomycin sensitive enterococci (E. faecalis); format: cell-based
# Protocol: as §1, §2
smiles,measurement,setting,value
"CC[C@H](C)[C@@H]1NC(=O)[C@@H]2NC(=O)[C@H](CC(C)C)NC(=O)[C@H](NC(=O)[C@@H]3CSC[C@@H](N)C(=O)N[C@@H](CO)C(=O)NCC(=O)N[C@@H](Cc4c[nH]c5ccccc45)C(=O)N[C@@H](C(C)C)C(=O)N3)[C@H](C)SC[C@H](NC(=O)[C@H](CCC(=O)O)NC1=O)C(=O)NCC(=O)N[C@H]1C(=O)N[C@@H](CC(C)C)C(=O)N[C@@H](C(C)C)C(=O)N[C@@H](CS[C@H]2C)C(=O)N[C@@H](C)C(=O)N[C@H](C(=O)NCc2cc(Cl)cc(Cl)c2)CS[C@H]1C [Example 1, Deoxyactagardine B (3,5-dichlorobenzylamine) monocarboxamide N-methyl glucamine salt]",MIC,[1]; E. faecium 7634337,16 µg/mL
same,MIC,[1]; E. faecium 7662769,<16 µg/mL
same,MIC,[1]; E. faecium 7860190,4 to 8 µg/mL
same,MIC,[1]; E. faecium 7865532,16 µg/mL
same,MIC,[1]; E. faecium 9704998,8 µg/mL
same,MIC,[1]; E. faecium 9709024,<16 µg/mL
same,MIC,[1]; E. faecium 9710577,16 µg/mL
same,MIC,[2]; E. faecalis 9758512,8 µg/mL
same,MIC,[2]; E. faecalis GRL05031,2 to 4 µg/mL
same,MIC,[2]; E. faecalis GRL05032,8 µg/mL
same,MIC,[2]; E. faecalis GRL05033,8 µg/mL
same,MIC,[2]; E. faecalis GRL05034,4 µg/mL
same,MIC,[2]; E. faecalis GRL05035,8 µg/mL
same,MIC,Streptococcus pneumoniae,<16 µg/mL
same,MIC,[3]; S. epidermidis 9AF,16 µg/mL
same,MIC,[3]; S. epidermidis C12,16 µg/mL
same,MIC,[3]; S. epidermidis C16,16 µg/mL
same,MIC,[3]; S. epidermidis GRL05001,8 µg/mL
same,MIC,[3]; S. epidermidis GRL05002,8 µg/mL
same,MIC,[3]; S. epidermidis GRL05003,8 µg/mL
same,MIC,[3]; S. epidermidis GRL05004,4 to 8 µg/mL
same,MIC,[3]; S. epidermidis GRL05005,4 to 8 µg/mL
same,MIC,[3]; S. epidermidis GRL05006,4 to 8 µg/mL
same,MIC,[3]; S. epidermidis GRL05007,<16 µg/mL
same,MIC,[3]; S. epidermidis GRL05008,4 to 8 µg/mL
same,MIC,[3]; S. epidermidis GRL05009,16 µg/mL
same,MIC,[3]; S. epidermidis GRL05010,<16 µg/mL
same,MIC,[3]; S. epidermidis MF87,4 µg/mL
same,MIC,[4]; E. faecium 19579,4 µg/mL
same,MIC,[4]; E. faecium 7754422,<8 µg/mL
same,MIC,[4]; E. faecium 7865229,16 µg/mL
same,pH of saturated solution,"Aqueous solubility; aqueous saturated solution, listed as N-methyl-D-glucamine salt",8.43
same,Solubility,"Aqueous solubility; aqueous, * = calculations made from two determinations, listed as N-methyl-D-glucamine salt",6.87* mg/mL
same,Solubility,"Aqueous solubility; water, salts of compound 1, read-out: solubility",> 10000 µg/mL
same,MIC,S. pyogenes; S. pyogenes 7713283,0.06 µg/mL
same,MIC,S. pyogenes; S. pyogenes 7755255,<2 µg/mL
same,MIC,S. pyogenes; S. pyogenes 7755441,0.06 µg/mL
same,MIC,S. pyogenes; S. pyogenes 7755584,0.06 to 0.125 µg/mL
same,MIC,S. pyogenes; S. pyogenes 7757080,<1 µg/mL
same,MIC,S. pyogenes; S. pyogenes 7865253,0.06 µg/mL
same,MIC,S. pyogenes; S. pyogenes 7865289,0.06 µg/mL
same,MIC,S. pyogenes; S. pyogenes 7865844,8 µg/mL
same,MIC,S. pyogenes; S. pyogenes GRL05041,<1 µg/mL
same,MIC,S. pyogenes; S. pyogenes GRL05042,0.06 µg/mL
same,MIC,S. pyogenes; S. pyogenes GRL05043,<8 µg/mL
same,MIC,S. pyogenes; S. pyogenes GRL05045,<4 µg/mL
same,MIC,S. pyogenes; S. pyogenes GRL05046,0.06 µg/mL
same,MIC,MSSA; S. aureus 8325-4,4 µg/mL
same,MIC,MSSA; S. aureus G12,4 µg/mL
same,MIC,MSSA; S. aureus G15,4 µg/mL
same,MIC,MSSA; S. aureus G20,4 µg/mL
same,MIC,MSSA; S. aureus G22,4 µg/mL
same,MIC,MSSA; S. aureus G23,4 µg/mL
same,MIC,MSSA; S. aureus G26,4 µg/mL
same,MIC,MSSA; S. aureus G28,4 µg/mL
same,MIC,MSSA; S. aureus G29,4 µg/mL
same,MIC,MSSA; S. aureus G30,4 µg/mL
same,MIC,MSSA; S. aureus G31,4 µg/mL
same,MIC,MSSA; S. aureus G32,4 µg/mL
same,MIC,MSSA; S. aureus G33,4 µg/mL
same,MIC,MSSA; S. aureus G35,4 µg/mL
same,MIC,MSSA; S. aureus SH1000,4 to 8 µg/mL
same,MIC,MRSA; S. aureus 12232,4 µg/mL
same,MIC,MRSA; S. aureus R31,4 µg/mL
same,MIC,MRSA; S. aureus R33,4 µg/mL
same,MIC,MRSA; S. aureus R34,4 µg/mL
same,MIC,MRSA; S. aureus R36,4 µg/mL
same,MIC,MRSA; S. aureus R37,4 µg/mL
same,MIC,MRSA; S. aureus R39,4 to 8 µg/mL
same,MIC,MRSA; S. aureus R40,4 to 8 µg/mL
same,MIC,MRSA; S. aureus W71,8 µg/mL
same,MIC,MRSA; S. aureus W74,4 µg/mL
same,MIC,MRSA; S. aureus W82,4 to 8 µg/mL
same,MIC,MRSA; S. aureus W96,4 to 8 µg/mL
same,MIC,MRSA; S. aureus W97,4 µg/mL
same,MIC,MRSA; S. aureus W98,4 to 8 µg/mL
same,MIC,MRSA; S. aureus W99,4 to 8 µg/mL
same,MIC,[5]; E. faecalis 7757400,<4 µg/mL
same,MIC,[5]; E. faecalis 7791220,<16 µg/mL
same,MIC,[5]; E. faecalis GRL05022,<8 µg/mL
same,MIC,[5]; E. faecalis GRL05023,4 µg/mL
same,MIC,[5]; E. faecalis GRL05024,<8 µg/mL
same,MIC,[5]; E. faecalis GRL05026,8 µg/mL
same,MIC,[5]; E. faecalis GRL05027,4 to 8 µg/mL
same,MIC,[5]; E. faecalis GRL05029,4 µg/mL
same,MIC,[5]; E. faecalis GRL05030,<8 µg/mL
